We go through 31 compounds from patent US8906904B2, “Alkoxy pyrazoles as soluble guanylate cyclase activators” (Boehringer Ingelheim International GmbH, priority 2012, dated 2014).

As usually defined, the EC50 is the midpoint of the concentration-response curve.

Bounds are passed on as bounds.

The target of data set [1] is T1, human soluble guanylate cyclase alpha 1 and beta 1 subunits (sGC) (Homo sapiens, UniProt Q02108+Q02153).
T1 construct: expressed in transfected cells; host or cells: Chinese hamster ovary (CHO) cells, stably transfected
T1 sequence (Q02108 1-690): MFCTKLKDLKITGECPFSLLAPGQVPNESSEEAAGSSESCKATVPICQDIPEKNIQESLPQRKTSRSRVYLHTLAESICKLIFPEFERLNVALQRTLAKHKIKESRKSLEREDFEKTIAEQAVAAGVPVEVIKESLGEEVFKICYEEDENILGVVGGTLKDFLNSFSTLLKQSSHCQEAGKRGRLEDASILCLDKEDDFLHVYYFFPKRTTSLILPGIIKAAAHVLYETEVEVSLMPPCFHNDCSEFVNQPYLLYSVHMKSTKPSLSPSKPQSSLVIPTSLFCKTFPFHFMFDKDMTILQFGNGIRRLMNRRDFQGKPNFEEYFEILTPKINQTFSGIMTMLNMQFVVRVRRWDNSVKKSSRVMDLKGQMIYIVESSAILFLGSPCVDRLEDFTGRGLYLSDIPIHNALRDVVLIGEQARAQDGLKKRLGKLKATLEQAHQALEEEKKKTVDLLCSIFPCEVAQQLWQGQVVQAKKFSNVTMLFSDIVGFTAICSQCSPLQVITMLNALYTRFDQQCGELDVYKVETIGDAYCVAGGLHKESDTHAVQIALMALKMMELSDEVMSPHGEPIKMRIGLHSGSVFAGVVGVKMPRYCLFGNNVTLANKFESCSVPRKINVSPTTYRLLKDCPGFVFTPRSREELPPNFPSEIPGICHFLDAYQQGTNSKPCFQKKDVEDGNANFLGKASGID
T1 sequence (Q02153 1-619): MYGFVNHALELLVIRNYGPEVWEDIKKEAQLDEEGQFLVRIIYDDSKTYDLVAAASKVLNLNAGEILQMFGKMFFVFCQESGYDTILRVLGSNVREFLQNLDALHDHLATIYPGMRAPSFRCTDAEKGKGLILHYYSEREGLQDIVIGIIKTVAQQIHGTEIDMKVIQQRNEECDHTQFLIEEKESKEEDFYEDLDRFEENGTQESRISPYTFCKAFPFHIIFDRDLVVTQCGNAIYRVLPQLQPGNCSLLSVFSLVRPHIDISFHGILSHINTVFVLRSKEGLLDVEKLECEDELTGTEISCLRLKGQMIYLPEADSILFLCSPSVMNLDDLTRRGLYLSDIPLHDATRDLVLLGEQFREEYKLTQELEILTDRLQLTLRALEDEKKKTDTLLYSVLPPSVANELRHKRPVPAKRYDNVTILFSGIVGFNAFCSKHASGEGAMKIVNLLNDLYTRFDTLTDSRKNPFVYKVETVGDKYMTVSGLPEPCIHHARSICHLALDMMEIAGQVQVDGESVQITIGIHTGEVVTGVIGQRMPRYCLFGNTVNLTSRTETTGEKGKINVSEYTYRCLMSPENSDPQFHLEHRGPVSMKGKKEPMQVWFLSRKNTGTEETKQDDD
As to the kind of experiment: sGC cellular activator assay (cGMP, HTRF). In kind it is cell-based. As to conditions: CHO cells stably expressing human sGC alpha 1/beta 1, preincubated with 40 microM ODQ; cGMP readout; assay run with and without 50% human serum, Table 2 does not say which. A digest of the protocol: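 First, CHO-sGC (human α1β1) cells get 1 h ODQ at 40 microM with IBMX and 0.1% BSA. Finally, cGMP is quantified by HTRF and EC50 computed.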
A general note: Time-resolved FRET reads energy transfer from a long-lived donor to a nearby acceptor.

The nature of data set [2]: human liver microsome (HLM) metabolic stability assay. Conditions: human liver microsomes; % hepatic blood flow calculated from t1/2. It counts as in vitro ADME. The procedure, abridged:
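Compounds at 1 uM incubated with human liver microsomes plus NADPH at 37° C., sampled at 0, 5, 15, 30 and 60 min into cold acetonitrile and quantified by LC/MS/MS. t½ from the slope of ln % remaining vs time; CLint, CLh and % Qh derived from it (n=1).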

On to `CCOc1c(C(=O)O)cnn1-c1cccc(-c2cccc(C)c2OCc2ccc3c(c2)CCN(C(C)CF)C3)n1` (centres unmarked) [Compound 49, 5-ethoxy-1-(6-{2-[2-(2-fluoro-1-methyl-ethyl)-1,2,3,4-tetrahydro-isoquinolin-6-ylmethoxy]-3-methyl-phenyl}-pyridin-2-yl)-1H-pyrazole-4-carboxylic acid], for which the EC50 in data set [1] was determined as 54 nM. Moreover, in data set [2], the “HLM (% Qh)” value is listed as 48 % Qh.

In the case of `COc1c(C(=O)O)cnn1-c1cccc(-c2cccc(F)c2OCc2ccc3c(c2)CCN(C2CCOCC2)C3)n1` [Compound 63], in data set [1], a half-maximal response (EC50) required 82 nM. For the same compound, in data set [2], the “HLM (% Qh)” value is given as under 24 % Qh.

In data set [1], `CCOc1c(C(=O)O)cnn1-c1cccc(-c2cccc(C)c2OCc2ccc3c(c2)CCN(C(C)C)C3)n1` [Compound 32] showed an EC50 of 170 nM. Moreover, the “HLM (% Qh)” value in data set [2] is reported as under 24 % Qh.

In turn, `CCOc1c(C(=O)O)cnn1-c1cccc(-c2cccc(Cl)c2OCc2ccc3c(c2)CCN(CCOC)C3)n1` [Compound 58] returned an EC50 in data set [1] of 82 nM. In data set [2], the “HLM (% Qh)” value was under 24 % Qh.

Consider `CCOc1c(C(=O)O)cnn1-c1cccc(-c2cccc(C)c2OCc2ccc3c(c2)CCN(C2CCOCC2)C3)n1` [Compound 77], for which it took 31 nM to reach a half-maximal effect in data set [1] (EC50). In data set [2], the “HLM (% Qh)” value is on record as under 24 % Qh.

In data set [1], `COc1c(C(=O)O)cnn1-c1cccc(-c2cccc(C)c2OCc2ccc3c(c2)CCN(C2CCOCC2C)C3)n1` (centres unmarked) [Compound 86] displayed an EC50 of 41 nM. For the same compound, the “HLM (% Qh)” value in data set [2] is listed as under 24 % Qh.

With `COc1c(C(=O)O)cnn1-c1cccc(-c2cccc(C)c2OCc2ccc3c(c2)CCN(CC2COCCO2)C3)n1` (centres unmarked) [Compound 92], the EC50 in data set [1] worked out at 20 nM. The “HLM (% Qh)” value in data set [2] is listed as under 24 % Qh.

In the case of `CCOc1c(C(=O)O)cnn1-c1cccc(-c2cccc(Cl)c2OCc2ccc3c(c2)CCN(C2COC2)C3)n1` [Compound 51], a half-maximal effect in data set [1] (EC50) was put at 72 nM. The “HLM (% Qh)” value in data set [2] is under 24 % Qh.

In data set [1], `CCOc1c(C(=O)O)cnn1-c1cccc(-c2cccc(C)c2OCc2ccc3c(c2)CCN(CC2(C)COC2)C3)n1` [Compound 34] had an EC50 of 65 nM. Further, the “HLM (% Qh)” value in data set [2] is under 24 % Qh.

`CCOc1c(C(=O)O)cnn1-c1cccc(-c2cccc(Cl)c2OCc2ccc3c(c2)CCN(C2CCC(F)(F)CC2)C3)n1` [Compound 57] had a 50% effective concentration (EC50) in data set [1] of 24 nM. In data set [2], the “HLM (% Qh)” value is under 24 % Qh.

In turn, `CCOc1c(C(=O)O)cnn1-c1cccc(-c2cccc(C)c2OCc2ccc3c(c2)CCN(CC2CCOCC2)C3)n1` [Compound 69] gave an EC50 in data set [1] of 61 nM. In addition, in data set [2], the “HLM (% Qh)” value is on record as under 24 % Qh.

The compound `Cc1cccc(-c2cccc(-n3ncc(C(=O)O)c3OC(C)C)n2)c1OCc1ccc2c(c1)CCN(C1CCOC1)C2` (centres unmarked) [Compound 41] displayed an EC50 in data set [1] of 27 nM. The “HLM (% Qh)” value in data set [2] is reported as under 24 % Qh.

In the case of `COc1c(C(=O)O)cnn1-c1cccc(-c2cccc(C)c2OCc2ccc3c(c2)CCN(CC(C)(C)O)C3)n1` [Compound 33, 1-(6-{2-[2-(2-hydroxy-2-methyl-propyl)-1,2,3,4-tetrahydro-isoquinolin-6-ylmethoxy]-3-methyl-phenyl}-pyridin-2-yl)-5-methoxy-1H-pyrazole-4-carboxylic acid], it took 97 nM to reach a half-maximal effect in data set [1] (EC50). In addition, in data set [2], the “HLM (% Qh)” value is reported as under 24 % Qh.

Consider `CCOc1c(C(=O)O)cnn1-c1cccc(-c2cccc(C)c2OCc2ccc3c(c2)CCN(C2CCOC(C)(C)C2)C3)n1` (centres unmarked) [Compound 66], for which the EC50 in data set [1] was 110 nM. In addition, the “HLM (% Qh)” value in data set [2] is reported as under 24 % Qh.

In turn, `COc1c(C(=O)O)cnn1-c1cccc(-c2cccc(C)c2OCc2ccc3c(c2)CN(CC2CC(F)(F)C2)C3)n1` [Compound 82] returned an EC50 in data set [1] of 8 nM. The “HLM (% Qh)” value in data set [2] is under 24 % Qh.

In data set [1], `Cc1cccc(-c2cccc(-n3ncc(C(=O)O)c3OC(C)C)n2)c1OCc1ccc2c(c1)CCN(CC1(C)COC1)C2` [Compound 40] returned an EC50 of 62 nM. Besides, in data set [2], the “HLM (% Qh)” value is under 24 % Qh.

`COc1c(C(=O)O)cnn1-c1cccc(-c2cccc(C)c2OCc2ccc3c(c2C)CCN(C2CCOC2)C3)n1` (centres unmarked) [Compound 31] returned an EC50 in data set [1] of 19 nM. The “HLM (% Qh)” value in data set [2] is under 24 % Qh.

In data set [1], `CCOc1c(C(=O)O)cnn1-c1cccc(-c2cccc(C)c2OCc2ccc3c(c2)CCN(C2CC(C)OC(C)C2)C3)n1` (centres unmarked) [Compound 65] returned an EC50 of 56 nM. In data set [2], the “HLM (% Qh)” value is given as under 24 % Qh.

As to `CCOc1c(C(=O)O)cnn1-c1cccc(-c2cccc(C)c2OCc2ccc3c(c2)CCN(C2CCOCC2F)C3)n1` (centres unmarked) [Compound 94], in data set [1], the EC50 was 45 nM. The “HLM (% Qh)” value in data set [2] is on record as under 24 % Qh.

For the compound `CCOc1c(C(=O)O)cnn1-c1cccc(-c2cccc(Cl)c2OCc2ccc3c(c2)CCN(C2CCOC2)C3)n1` (centres unmarked) [Compound 55], the EC50 in data set [1] worked out at 110 nM. In data set [2], the “HLM (% Qh)” value was under 24 % Qh.

Compound `CCOc1c(C(=O)O)cnn1-c1cccc(-c2cccc(Cl)c2OCc2ccc3c(c2)CCNC3)n1` [Compound 50] registered an EC50 in data set [1] of 990 nM. The “HLM (% Qh)” value in data set [2] is recorded as 40 % Qh.

The compound `COc1c(C(=O)O)cnn1-c1cccc(-c2cccc(C)c2OCc2ccc3c(c2)CCN(C2CCOCC2OC)C3)n1` (centres unmarked) [Compound 81] came in with an EC50 in data set [1] of 410 nM. In addition, the “HLM (% Qh)” value in data set [2] was under 24 % Qh.

As to `COc1c(C(=O)O)cnn1-c1cccc(-c2cc(F)cc(F)c2OCc2ccc3c(c2)CCN(C2COC2)C3)n1` [Compound 52], the EC50 in data set [1] came to 170 nM. Also, the “HLM (% Qh)” value in data set [2] was under 24 % Qh.

In the case of `COc1c(C(=O)O)cnn1-c1cccc(-c2cccc(C)c2OCc2ccc3c(c2)CCN(C2CC(C)OC(C)C2)C3)n1` (centres unmarked) [Compound 62], the EC50 in data set [1] amounted to 24 nM. In data set [2], the “HLM (% Qh)” value is given as under 24 % Qh.

Turning to `Cc1cccc(-c2cccc(-n3ncc(C(=O)O)c3OC(C)C)n2)c1OCc1ccc2c(c1C)CCN(C(C)C)C2` [Compound 43], in data set [1], the EC50 stood at 130 nM. Further, the “HLM (% Qh)” value in data set [2] is given as 26 % Qh.

In data set [1], `COc1c(C(=O)O)cnn1-c1cccc(-c2cccc(C)c2OCc2ccc3c(c2)CCN([C@H]2CC[C@H](OC)CC2)C3)n1` [Compound 90] displayed a concentration for a half-maximal effect (EC50) of 69 nM. For the same compound, in data set [2], the “HLM (% Qh)” value is on record as under 24 % Qh.

Turning to `COc1c(C(=O)O)cnn1-c1cccc(-c2cccc(C)c2OCc2ccc3c(c2)CCN(C2CC4CCC(C2)O4)C3)n1` (centres unmarked) [Compound 87], the concentration for a half-maximal effect (EC50) in data set [1] was 55 nM. The “HLM (% Qh)” value in data set [2] is under 24 % Qh.

`Cc1cccc(-c2cccc(-n3ncc(C(=O)O)c3OC(C)C)n2)c1OCc1ccc2c(c1)CCN(C1CCOCC1)C2` [Compound 1, 5-isopropoxy-1-(6-{3-methyl-2-[2-(tetrahydro-pyran-4-yl)-1,2,3,4-tetrahydro-isoquinolin-6-ylmethoxy]-phenyl}-pyridin-2-yl)-1H-pyrazole-4-carboxylic acid] had an EC50 in data set [1] of 39 nM. Besides, the “HLM (% Qh)” value in data set [2] is listed as under 24 % Qh.

In the case of `CCOc1c(C(=O)O)cnn1-c1cccc(-c2cccc(C)c2OCc2ccc3c(c2)CCN(C2CCOCC2C)C3)n1` (centres unmarked) [Compound 64], the EC50 in data set [1] was 71 nM. Besides, the “HLM (% Qh)” value in data set [2] is recorded as under 24 % Qh.

In turn, `COCC(C)N1CCc2cc(COc3c(C)cccc3-c3cccc(-n4ncc(C(=O)O)c4OC(C)C)n3)ccc2C1` (centres unmarked) [Compound 38] yielded a concentration for a half-maximal effect (EC50) in data set [1] of 66 nM. Besides, in data set [2], the “HLM (% Qh)” value is on record as under 24 % Qh.

`CCOc1c(C(=O)O)cnn1-c1cccc(-c2cccc(C)c2OCc2ccc3c(c2)CCN(C2CCOC2C)C3)n1` (centres unmarked) [Compound 71] returned a concentration giving a half-maximal response (EC50) in data set [1] of 67 nM. In addition, in data set [2], the “HLM (% Qh)” value was under 24 % Qh.
